Tested on: 186277-243-T-J2-PDC spheroids with HUVEC/MSC, viability
Test: Anticancer human tumor 186277-243-T-J2-PDC patient-derived colon adenocarcinoma cell line growth inhibition [CLK]
Details: for IC50: curve of first compound; for viability, T/C: stronger effect = lower value
Source text: A high-throughput screen of multi-cell type tumor spheroids was designed to identify active combinations of […] and targeted small molecules. Complex spheroids include a stromal component modeled by human endothelial cells (HUVEC) and fibroblasts modeled by human mesenchymal stem cells (MSCs). The concentration ranges selected for each drug and investigational agent were based upon clinically achievable concentrations if the clinical Cmax of the agent was known.
Compounds. The drugs and investigational agents: cirtuvivint (SM08502; NSC835563), CC-671 (NSC850746), vemurafenib (NSC761431), tapotoclax (NSC804041), sotorasib (NSC818433), adagrasib (NSC831453), MRTX-1133 (NSC836407), BAY2416964 (NSC825713), copanlisib (NSC816437), inavolisib (NSC800729), abemaciclib (NSC768073), osimertinib (NSC779217), entinostat (NSC756642), eltanexor (KPT-8602, NSC794443), venetoclax (NSC766270), ceralasertib (NSC777638), bortezomib (NSC756655), olaparib (NSC753686), talazoparib (NSC767125), alisertib (NSC759677), peposertib (NSC802822), gemcitabine (NSC613327), 5-fluorouracil (NSC19893), SN-38 (NSC673596), oxaliplatin (NSC266046), paclitaxel (NSC125973), and doxorubicin (NSC123127), were obtained from the National Cancer Institute (NCI) Developmental Therapeutics Program Chemical Repository. The FDA-approved anticancer drug set is available from the Developmental Therapeutics Program at https://dtp.cancer.gov/organization/dscb/obtaining/available plates.htm. […] The stock solutions were prepared in dimethyl sulfoxide (DMSO, Sigma-Aldrich, St. Louis, MO, cat. D2650), except for the platinum complexes which were prepared in saline (Quality Biological, Gaithersburg, MD, cat. 114-055-101), at 800-fold the tested concentration and stored at -70 degrees C prior to their use. All drugs and investigational agents were tested over a range starting from a high concentration at or near the clinical Cmax and decreasing in half-log increments. If the clinical Cmax for an agent had not been determined, the highest concentration tested was 10 microM.
Cell Culture. All cells were maintained in an incubator at 37 degrees C and 5% CO2 with 95% humidity. The PDC lines were cultured according to standard operating procedures established by the NCI PDMR. Briefly, all PDCs were thawed and cultured in Matrigel-coated flasks prepared with a working solution of 1X Ham's F-12 nutrient mix, without supplementation (Invitrogen, Waltham, MA, cat. 11765054), 100 U/mL penicillin-streptomycin (Invitrogen, cat. 15140122), and 2.5% Matrigel (Corning Inc., Corning, NY, cat. 354248) for the first three passages. The 947758-054-R-J2-PDC line was cultured in 6B/Colon 1A media, which includes advanced DMEM/F-12 (Thermo Fisher Scientific, cat. 12634028), 10 mM HEPES (Thermo Fisher Scientific, cat. 15630080), 1X GlutaMAX supplement (Thermo Fisher Scientific, cat. 35050061), 0.1 mg/mL primocin (InvivoGen, cat. ant-pm-2), 10% defined fetal bovine serum, heat inactivated (HyClone Laboratories Inc., cat. SH30070.03HI), 1.25 mM N-Acetyl-L-cysteine (Sigma-Aldrich, cat. A9165), 10 mM nicotinamide (Sigma-Aldrich, cat. N0636), 1X B-27 supplement (Thermo Fisher Scientific, cat. 17504044), 1X N-2 supplement (Thermo Fisher Scientific, cat. 17502048), and 10 microM Y-27632 dihydrochloride (Tocris Bioscience, cat. 1254). The 876862-298-R-J1-PDC was cultured in 6E media, which includes all 6B/Colon 1A media components plus 50% L-WRN conditioned media (ATCC, cat. CRL-3276), 50 ng/mL recombinant human EGF recombinant protein (hEGF; Thermo Fisher Scientific, cat. PHG0311), 10 ng/mL recombinant human fibroblast growth factor 10 (hGFG-10; PeproTech, cat. 100-26), 1 ng/mL recombinant human fibroblast growth factor 2 (hFGF-2; PeproTech, cat. 100-18B), and 1 µM prostaglandin E2 (PGE2; Tocris, cat. 2296). The 227483-062-R1-J1-PDC line was cultured in Panc media, containing all 6E components except hFGF-2, with the addition of 500 nM SB-431542 (Selleckchem, cat. S1067) and 10 nM gastrin (Tocris, cat. 3006). […]
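Further: compound exposure lasted seven days before readout.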
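Wherever viability, T/C is given: 100% = DMSO vehicle control wells.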

CC(CO)NC(=O)c1cc(-c2ccc(Cl)cc2)nn(-c2cnn(C)c2)c1=O (configuration not stated) + CN1CCN(c2cc(C(=O)Nc3cc4cc(-c5cnn(C)c5)ccc4cn3)ccn2)CC1
IC50 (second compound 0.0316 µM): > 10 µM
IC50 (second compound 0.1 µM): > 10 µM
IC50 (second compound 0.316 µM): < 0.0316 µM
IC50 (second compound 1 µM): < 0.0316 µM
IC50 (second compound 3.16 µM): < 0.0316 µM
IC50 (second compound 10 µM): < 0.0316 µM
viability, T/C (second compound 0.0316 µM, first compound 0.0316 µM): 118%
viability, T/C (second compound 0.0316 µM, first compound 0.1 µM): 111%
viability, T/C (second compound 0.0316 µM, first compound 0.316 µM): 96.7%
viability, T/C (second compound 0.0316 µM, first compound 1 µM): 102%
viability, T/C (second compound 0.0316 µM, first compound 3.16 µM): 106%
viability, T/C (second compound 0.0316 µM, first compound 10 µM): 112%
viability, T/C (second compound 0.1 µM, first compound 0.0316 µM): 106%
viability, T/C (second compound 0.1 µM, first compound 0.1 µM): 92.2%
viability, T/C (second compound 0.1 µM, first compound 0.316 µM): 106%
viability, T/C (second compound 0.1 µM, first compound 1 µM): 103%
viability, T/C (second compound 0.1 µM, first compound 3.16 µM): 107%
viability, T/C (second compound 0.1 µM, first compound 10 µM): 97.3%
viability, T/C (second compound 0.316 µM, first compound 0.0316 µM): 25%
viability, T/C (second compound 0.316 µM, first compound 0.1 µM): 27.6%
viability, T/C (second compound 0.316 µM, first compound 0.316 µM): 29.6%
viability, T/C (second compound 0.316 µM, first compound 1 µM): 30.5%
viability, T/C (second compound 0.316 µM, first compound 3.16 µM): 25.2%
viability, T/C (second compound 0.316 µM, first compound 10 µM): 35.1%
viability, T/C (second compound 1 µM, first compound 0.0316 µM): 0.55%
viability, T/C (second compound 1 µM, first compound 0.1 µM): 0.96%
viability, T/C (second compound 1 µM, first compound 0.316 µM): 0.66%
viability, T/C (second compound 1 µM, first compound 1 µM): 0.35%
viability, T/C (second compound 1 µM, first compound 3.16 µM): 0.36%
viability, T/C (second compound 1 µM, first compound 10 µM): 0.38%
viability, T/C (second compound 3.16 µM, first compound 0.0316 µM): 0.96%
viability, T/C (second compound 3.16 µM, first compound 0.1 µM): 1.12%
viability, T/C (second compound 3.16 µM, first compound 0.316 µM): 0.88%
viability, T/C (second compound 3.16 µM, first compound 1 µM): 1.2%
viability, T/C (second compound 3.16 µM, first compound 3.16 µM): 1.15%
viability, T/C (second compound 3.16 µM, first compound 10 µM): 1.66%
viability, T/C (second compound 10 µM, first compound 0.0316 µM): 0.72%
viability, T/C (second compound 10 µM, first compound 0.1 µM): 0.76%
viability, T/C (second compound 10 µM, first compound 0.316 µM): 0.63%
viability, T/C (second compound 10 µM, first compound 1 µM): 0.88%
viability, T/C (second compound 10 µM, first compound 3.16 µM): 0.8%
viability, T/C (second compound 10 µM, first compound 10 µM): 0.63%
